In patent US20250353841A1 (BIOGEN MA INC., priority 2022, published 2025) one finds mHTT protein levels and IC50 data, which are given here for 8 compounds.

Like-named read-outs stand apart in the source and are kept apart here. Bounds are passed on as bounds.

Test [1] deals with mHTT protein. Conditions: HD patient cells; cited from earlier work.
In test [2] the test system is mHTT protein. Conditions: HD mouse model; cited from earlier work.
Test [3] concerns mHTT protein. The note with it: blood samples from SMA Type I patients dosed orally; cited from earlier work.
The subject of test [4] is mutant Huntington (HTT) protein. The test is described as follows: HTT Mutant HTRF iPSC assay (mHTT protein lowering). It is filed as cell-based. Conditions: human iPSC derived from a HTT patient with a poly-Q49 mutation.

With `CC1(C)CC(Oc2ccc(-c3ccc(-c4cn[nH]c4)cc3O)nn2)CC(C)(C)N1` [branaplam], the mHTT protein levels result in test [1], in test [2] and in test [3] was “lowers mHTT protein levels” each time. For `Cc1cn2nc(-c3cc(F)c4nc(NC(=O)C5CCCC(N(C)C)C5)cn4c3)cc(C)c2n1` (racemic) [Compound 247, 3-(dimethylamino)-N-(6-(2,8-dimethylimidazo[1,2-b]pyridazin-6-yl)-8-fluoroimidazo[1,2-a]pyridin-2-yl)cyclohexane-1-carboxamide], in test [4], the IC50 was in the range of 0.1 to 1 µM.

`Cc1cc(-c2cc(F)c3nn(C4CCN(C)CC4)cc3c2)cc2cn(C)nc12` [Compound 356, 7-fluoro-2′,7′-dimethyl-2-(1-methylpiperidin-4-yl)-2H,2′H-5,5′-biindazole] had an IC50 in test [4] of 0.1 to 1 µM. Regarding `Cc1cn2nc(-c3cc(F)c4nc(NC(=O)C56CNC(C5)C6)nn4c3)cc(C)c2n1` [Compound 320, N-(6-(2,8-dimethylimidazo[1,2-b]pyridazin-6-yl)-8-fluoro-[1,2,4]triazolo[1,5-a]pyridin-2-yl)-2-azabicyclo[2.1.1]hexane-4-carboxamide], the IC50 in test [4] was 1 to 9 µM. Consider `Cc1cn2nc(-c3cc(F)c4[nH]c(C5CCC6(CC5)CNC6)nc4c3)cc(C)c2n1` [Compound 424, 6-(7-fluoro-2-(2-azaspiro[3.5]nonan-7-yl)-1H-benzo[d]imidazol-5-yl)-2,8-dimethylimidazo[1,2-b]pyridazine], for which the IC50 in test [4] is 0.1 to 1 µM. Regarding `CCN1CCC(c2nc3cc(-c4cc(C)c5nc(C)cn5n4)cc(F)c3[nH]2)CC1` [Compound 425, 6-(2-(1-ethylpiperidin-4-yl)-7-fluoro-1H-benzo[d]imidazol-5-yl)-2,8-dimethylimidazo[1,2-b]pyridazine], in test [4], the IC50 was in the range of 0.1 to 1 µM. `Cc1cn2nc(-c3ccc4nc(C5CCNCC5)cn4c3)cc(C)c2n1` [Compound 551, 2,8-dimethyl-6-[2-(4-piperidyl)imidazo[1,2-a]pyridin-6-yl]imidazo[1,2-b]pyridazine] had an IC50 in test [4] below 0.1 µM. `Cc1cn2nc(-c3cc(F)c4nc(NC(=O)C5CN(CC(F)F)C5)cn4c3)cc(C)c2n1` [Compound 267, 1-(2,2-difluoroethyl)-N-(6-(2,8-dimethylimidazo[1,2-b]pyridazin-6-yl)-8-fluoroimidazo[1,2-a]pyridin-2-yl)azetidine-3-carboxamide] gave an IC50 in test [4] of 0.1 to 1 µM.

As a reminder, the IC50 is the concentration that inhibits the measured activity by half. Higher therefore signals weaker potency.
